Like-named read-outs stand apart in the source and are kept apart here.
How the values were obtained:
in vitro [1] = details: human
EBOV [2] = test: microbe, parasite or virus in culture; type: cell-based, Ebola virus; details: Zaire ebolavirus; for IC50: read-out: Huh7 IC50; for IC90: read-out: Huh7 IC90
EBOV L (RdRp) activity = test: cells; type: cell-based, Ebola virus; details: for IC50: Zaire ebolavirus, HEK293T/17, 24 h, read-out: IC50 (minigenome luciferase)
coxsackie virus B4 = details: cited from earlier work
African green monkeys = details: monkey, in vivo; cited from earlier work
in vitro [3] = test: in vitro
[4] = system: Marburg virus/H. sapiens-tc/AGO/2005/Angola-1379v (MARV); test: organism not typed; type: cell-based
[5] = system: human parainfluenza virus 3; details: cited from earlier work
[6] = mouse, in vivo; cited from earlier work
HEK 293T/T17 cells = details: human
[7] = system: vesicular stomatitis Indiana virus; details: cited from earlier work
[8] = system: Ebola virus/H.sapiens-tc/GIN/2014/Makona-C05 (EBOV); test: organism not typed; type: cell-based
herpes simplex virus 1 = details: cited from earlier work
Sindbis virus = details: cited from earlier work
[9] = system: recombinant cowpox virus expressing GFP (rCPXV-GFP); test: microbe, parasite or virus in culture; type: cell-based; details: read-out: Max at conc (percent inhibition)
[10] = system: Lassa virus strain Josiah (LASV); test: microbe, parasite or virus in culture; type: cell-based; details: read-out: Max at conc (percent inhibition)
reovirus type 1 = details: cited from earlier work
poliovirus 1 = details: cited from earlier work
[11] = system: recombinant vaccinia virus expressing GFP (rVACV-GFP); test: organism not typed; type: cell-based
EBOV [12] = test: microbe, parasite or virus in culture; type: cell-based, Ebola virus; details: Zaire ebolavirus
patients = details: human, in vivo; cited from earlier work
vaccinia virus = details: cited from earlier work
[13] = system: HIV-1 particles pseudotyped with VSIV G; type: cell-based, human immunodeficiency virus 1
herpes simplex virus 2 = details: cited from earlier work
[14] = read-out: Max at conc (percent inhibition)
[15] = Orthopoxvirus vaccinia, read-out: Max at conc (percent inhibition)

Question: Which CC50 (in vitro [1]) does the source give for `CN(Cc1cnc2nc(N)nc(N)c2n1)c1ccc(C(=O)N[C@@H](CCC(=O)O)C(=O)O)cc1` [NSC 740] here?
Answer: 130 nM

Question: For `CCc1nc(N)nc(N)c1-c1ccc(Cl)cc1` [NSC 3061], which CC50 (in vitro [1]) is on record?
Answer: 22000 nM

Question: Which CC50 (in vitro [1]) does the source give for `COc1cc(Cc2cnc(N)nc2N)cc(OC)c1OC` [NSC 106568] here?
Answer: > 60000 nM

Question: For `COc1cc(NS(C)(=O)=O)ccc1Nc1c2ccccc2nc2ccccc12` [NSC 249992], which CC50 (in vitro [1]) is on record?
Answer: 22000 nM

Question: With `C#CCC(Cc1cnc2nc(N)nc(N)c2n1)c1ccc(C(=O)N[C@@H](CCC(=O)O)C(=O)O)cc1` (stereo partly drawn) [NSC 754230] as the molecule, how does the CC50 (in vitro [1]) read?
Answer: 4 nM

Question: With `CCC(CC)COC(=O)[C@H](C)N[P@](=O)(OC[C@H]1O[C@@](C#N)(c2ccc3c(N)ncnn23)[C@H](O)[C@@H]1O)Oc1ccccc1` [Remdesivir, remdesivir, reference compound] as the molecule, how does the IC50 (EBOV [2]; Huh-7, 1 h) read?
Answer: 87.7 nM

Question: And the IC90 (EBOV [2]; Huh-7, 1 h)?
Answer: 180 nM

Question: What about the IC50 (EBOV [2]; Huh-7, 2 h) of the same molecule?
Answer: 74.6 nM

Question: What about the IC90 (EBOV [2]; Huh-7, 2 h) of the same molecule?
Answer: 154 nM

Question: What about the IC50 (EBOV [2]; Huh-7, 4 h) of the same molecule?
Answer: 105 nM

Question: And the IC90 (EBOV [2]; Huh-7, 4 h)?
Answer: 188 nM

Question: What about the IC50 (EBOV [2]; Huh-7, 8 h) of the same molecule?
Answer: 116 nM

Question: And the IC90 (EBOV [2]; Huh-7, 8 h)?
Answer: 224 nM

Question: And the IC50 (EBOV [2]; Huh-7, 24 h)?
Answer: 117 nM

Question: And the IC90 (EBOV [2]; Huh-7, 24 h)?
Answer: 231 nM

Question: What about the “IC50 of constant ratio S:R, relative to remdesivir concentration” value (EBOV L (RdRp) activity) of the same molecule?
Answer: 1,444 nM

Question: What about the IC50 (EBOV L (RdRp) activity) of the same molecule?
Answer: 1440 nM

Question: With `NC(=O)c1cn([C@@H]2O[C@H](CO)[C@@H](O)[C@H]2O)c2ncnc(N)c12` [Sangivamycin, 4-amino-7-(β-D-ribofuranosyl)pyrrolo[2,3-d]pyrimidine-5-carboxamide] as the molecule, how does the IC50 (EBOV [2]; Huh-7, 1 h) read?
Answer: 103 nM

Question: What about the IC90 (EBOV [2]; Huh-7, 1 h) of the same molecule?
Answer: 148 nM

Question: And the IC50 (EBOV [2]; Huh-7, 2 h)?
Answer: 106 nM

Question: And the IC90 (EBOV [2]; Huh-7, 2 h)?
Answer: 143 nM

Question: And the IC50 (EBOV [2]; Huh-7, 4 h)?
Answer: 57 nM

Question: And the IC90 (EBOV [2]; Huh-7, 4 h)?
Answer: 132 nM

Question: What about the IC50 (EBOV [2]; Huh-7, 8 h) of the same molecule?
Answer: 72.1 nM

Question: What about the IC90 (EBOV [2]; Huh-7, 8 h) of the same molecule?
Answer: 163 nM

Question: And the IC50 (EBOV [2]; Huh-7, 24 h)?
Answer: 64.1 nM

Question: What about the IC90 (EBOV [2]; Huh-7, 24 h) of the same molecule?
Answer: 236 nM

Question: And the IC50 (coxsackie virus B4)?
Answer: 129 nM

Question: What about the tolerability (African green monkeys) of the same molecule?
Answer: tolerated

Question: What about the CC50 (in vitro [3]) of the same molecule?
Answer: > 600 nM

Question: And the IC50 ([4]; read-out: IC50 values (range across cell types))?
Answer: 100 to 300 nM

Question: And the inhibition at 0.6 µM [4, 14]?
Answer: 100%

Question: What about the IC50 [5] of the same molecule?
Answer: 65 nM

Question: And the tissue retention [6]?
Answer: retained in tissues for days

Question: And the cytotoxicity (HEK 293T/T17 cells)?
Answer: approximately 30%

Question: What about the IC50 [7] of the same molecule?
Answer: 65 nM

Question: What about the IC50 [8] of the same molecule?
Answer: 110 ± 8 nM

Question: And the IC50 ([8]; Zaire ebolavirus)?
Answer: 60 ± 3 nM

Question: And the IC50 ([8]; Zaire ebolavirus, read-out: IC50 values (range across cell types))?
Answer: 40 to 100 nM

Question: And the inhibition at 0.6 µM ([8]; Zaire ebolavirus, read-out: Max at conc (percent inhibition))?
Answer: 100%

Question: And the IC50 (herpes simplex virus 1)?
Answer: 226 nM

Question: What about the IC50 (Sindbis virus) of the same molecule?
Answer: 646 nM

Question: What about the inhibition at 0.6 µM [9] of the same molecule?
Answer: 97%

Question: What about the inhibition at 0.3 µM [10] of the same molecule?
Answer: 104%

Question: What about the inhibition at 0.6 µM [10] of the same molecule?
Answer: 99.7%

Question: What about the IC50 (reovirus type 1) of the same molecule?
Answer: 323 nM

Question: And the IC50 (poliovirus 1)?
Answer: 226 nM

Question: What about the IC50 [11] of the same molecule?
Answer: > 4 nM

Question: What about the IC50 ([11]; Orthopoxvirus vaccinia) of the same molecule?
Answer: 20 ± 4 nM

Question: What about the inhibition at 0.075 µM [11, 15] of the same molecule?
Answer: 98%

Question: What about the inhibition at 0.3 µM [11, 15] of the same molecule?
Answer: 95.4%

Question: And the IC50 (EBOV [12])?
Answer: 60 ± 3 nM

Question: What about the inhibition at 0.15 µM (EBOV [12]; [14]) of the same molecule?
Answer: 100%

Question: And the “activity against cancer in clinical trials” value (patients)?
Answer: inactive

Question: And the tolerability in patients (patients)?
Answer: well tolerated

Question: What about the “IC50 of constant ratio S:R, relative to sangivamycin concentration” value (EBOV L (RdRp) activity) of the same molecule?
Answer: 46.4 nM

Question: What about the “reduction of luciferase activity vs untreated control” value (EBOV L (RdRp) activity) of the same molecule?
Answer: greater than 80%

Question: And the IC50 (EBOV L (RdRp) activity)?
Answer: 46.4 nM

Question: What about the IC50 (vaccinia virus) of the same molecule?
Answer: 65 nM

Question: What about the HIV-1 pseudotype transduction [13] of the same molecule?
Answer: did not affect

Question: And the IC50 (herpes simplex virus 2)?
Answer: 226 nM

Question: Which CC50 (HEK 293T cells) does the source give for NSC 133071 here?
Answer: > 60000 nM

Question: Which CC50 (HEK 293T cells) does the source give for sangivamycin HCl [NSC 143648] here?
Answer: > 60000 nM

From paper PMC7824103 (Viruses, 2020)
